# System: ID8 cells
# Test: Inhibition assay of cellular uptake of OCTL14
# Type: cell-based, murine
# Details: pre-blocked 5-30 min, then 2 μM OCTL14 for 30 min
row,SMILES,change in cellular uptake of OCTL14 after pretreatment with inhibitor
1,"O=C1OC(c2ccc(O)c(S(=O)(=O)O)c2)(c2ccc(O)c(S(=O)(=O)O)c2)c2c(Br)c(Br)c(Br)c(Br)c21 [BSP, bromsulphthalein]",did not result in significant changes in cellular uptake
2,O=C(N/N=C/c1cc(O)c(O)cc1O)c1cc2ccccc2cc1O [Dyngo 4a],did not result in any appreciable change in cellular uptake
3,CN(C)C(=O)CCSC(SCCC(=O)O)c1cccc(/C=C/c2ccc3ccc(Cl)cc3n2)c1 (stereo not shown) [MK-571],little change in cellular uptake
4,O=C1NC(=NS(=O)(=O)c2cccc3ccccc23)S/C1=C\c1ccc(Br)cc1 [Pitstop 2],did not result in any appreciable change in cellular uptake
